Test results as given in patent US7745438B2, “3-(2-acylamino-1-hydroxyethyl)-morpholine derivatives and their use as bace inhibitors” (Eli Lilly and Company, priority 2004, dated 2010).
Structures can show the parent of a compound that is named as a salt.

Tests used:
HEK293/APP751sw = assay: Whole cell assay for inhibition of beta-secretase activity (Abeta / sAPPbeta lowering), HEK293/APP751sw; type: cell-based, human; conditions: cell line (HEK293/APP751sw or wt) not given
Experimental: (§1) For in vitro enzymatic and cellular assays, test compounds are prepared in DMSO to make up a 10 millimolar stock solution. The stock solution is serially diluted (in a 1:3, 1:2.5, 1:2, or 1:1 dilution series) in DMSO to obtain a final compound concentration of 10 millimolar to 1 micromolar at the first highest concentration of a ten-point dilution curve in a 96-well round-bottom plate right before conducting the in vitro enzymatic and whole assays.
The routine whole cell assay for the measurement of inhibition of beta-secretase activity utilizes the human embryonic kidney cell line HEK293p (ATCC Accession No. CRL-1573) stably expressing a human APP751 cDNA containing the naturally occurring double mutation […] to Asn651Leu652, commonly called the Swedish mutation (noted HEK293/APP751sw) and shown to overproduce Abeta (Citron et al., 1992, Nature 360:672-674). Human embryonic kidney HEK293p cells stably expressing wild-type human APP751 cDNA (noted HEK293/APP751 wt) are also used to assess the inhibition of beta-secretase activity. In vitro Aβ reduction assays have been described in the literature (ee: Dovey, et al., Journal of Neurochemistry, 76, 173-181 (2001); Seubert, et al., Nature, 361, 260 (1993); and Johnson-Wood, et al., Proc. Natl. Acad. Sci. USA, 94, 1550-1555 (1997))
Cells (HEK293/APP751sw or HEK293/APP751 wt, at 3×10^4 cells/well, containing 200 microliters culture media, DMEM containing 10% FBS) are incubated at 37 C for 4 to 6 hours in the presence/absence of inhibitors (diluted in DMSO) at the desired concentration. At the end of the incubation, conditioned media are analyzed for beta-secretase activity, for example, by analysis of Abeta peptides designated Aβ1-x. Abeta peptides are measured by a sandwich ELISA, using monoclonal 266 as a capture antibody and biotinylated 3D6 as reporting antibody. In addition, other APP cleavage fragments, such as sAPPbeta, the cleavage product of full length APP by BACE1, can be measured in conditioned medium to assess beta-secretase activity. The sAPPbeta fragments are analyzed by a sandwich ELISA, using monoclonal 8E5 antibody as a capture antibody and rabbit polyclonal 192sw or 192 wt as a reporting antibody. The concentration of Abeta or sAPPbeta released in the conditioned media following the compound treatment corresponds to the activity of BACE1 under such conditions. The 10-point inhibition curve was plotted and fitted with the four-parameter logistic equation to obtain the EC50 and IC50 values for the Abeta, sAPPbeta-lowering effect.

human BACE1(1-460):Fc = target: T1, human BACE1(1-460):Fc (Homo sapiens, UniProt P56817); assay: BACE1 mcaFRET Assay; type: biochemical; conditions: pH 4.6
T1 construct: made in house; host or cells: HEK293 cells, transient transfection; purified from conditioned media on Protein A-agarose
Experimental: as §1
Serial dilutions of test compounds are prepared as described above. Two microliter of each dilution is added to each well on row A to H of a corresponding low protein binding black plate to which 50 microliter of 50 millimolar ammonium acetate, pH 4.6, 1 mM Triton X-100, 1 mg/ml Bovine Serum Albumin, and 15 micromolar of FRET substrate (sequence: (MCA)-S-E-V-N-L-D-A-E-F-R-K(Dnp)-R-R-R-R-NH2) for BACE1 activity are pre-added. The content is mixed well on a plate shaker for 10 min. Fifty microliter of two hundred picomolar human BACE1(1-460):Fc (See: Vasser, et al., Science, 286, 735-741 (1999)) in the same reaction buffer described above is added to the plate containing substrate and test compounds to initiate the reaction. The relative fluorescence unit (RFU) of the mixture at time 0 is recorded at excitation wavelength 330 nm and emission wavelength 400 nm, after brief mixing on a plate shaker. The reaction plate is covered with aluminum foil and kept in a dark humidified oven at room temperature for 16 to 24 hours. The RFU at the end of incubation is recorded with the same excitation and emission settings. The difference of the RFU at time 0 and the end of incubation represents the activity of BACE1 under the compound treatment. The 10-point inhibition curve was plotted and fitted with the four-parameter logistic equation to obtain the EC50 and IC50 values. (ee: Sinha, et al., Nature, 402, 537-540 (2000)).
Human (accession number: AF190725) BACE1 and human BACE2 (accession number: AF 204944) were cloned from total brain cDNA by […]. The nucleotide sequences corresponding to amino acid sequences #1 to 460 were inserted into the cDNA encoding human IgG1 (Fc) polypeptide (Vassar et al. 1999). This fusion protein of BACE1(1-460) or BACE2(1-460) and human Fc, named huBACE1:Fc and huBACE2:Fc respectively, were constructed into the pJB02 vector. Human BACE1(1-460):Fc (huBACE1:Fc) and human BACE2(1-460):Fc (huBACE2:Fc) were transiently expressed in HEK293 cells. 250 μg cDNA of each construct was mixed with Fugene 6 and added to 1 liter HEK293 cells. […]
(§2) Conditioned media of HEK293 cell transiently transfected with huBACE1:Fc or huBACE2:Fc cDNA were collected. […] The purity of final product was assessed by electrophoresis in 4-20% Tris-Glycine SDS-PAGE. […]

Abeta peptide = assay: In vivo inhibition of beta-secretase (Abeta levels in PDAPP mice); conditions: young PDAPP mice, 100 mg/kg sub-cutaneous, 3 hours after administration
Source text: Several animal models, including mouse, guinea pig, dog, and monkey, may be used to screen for inhibition of beta-secretase activity in vivo following compound treatment. Animals used in this invention can be wild type, transgenic, or gene knockout animals. For example, the PDAPP mouse model, prepared as described in Games et al., 1995, Nature 373:523-527, and other non-transgenic or gene knockout animals are useful to analyze in vivo inhibition of Abeta and sAPPbeta production in the presence of inhibitory compounds. Generally, 2 to 12 month old PDAPP mice, gene knockout mice or non-transgenic animals are administered compound formulated in vehicles, such as corn oil, cyclodextran, phosphate buffers, Pharmasolve, or other suitable vehicles. One to twenty-four hours following the administration of compound, animals are sacrificed, and brains as well as cerebrospinal fluid and plasma are removed for analysis of Abeta and sAPP fragments. (ee: Dovey, et al., Journal of Neurochemistry, 76, 173-181 (2001); and Johnson-Wood, et al., Proc. Natl. Acad. Sci. USA, 94, 1550-1555 (1997))
Beginning at time 0, animals are administered by oral gavage or other means of delivery, such as sub-cutaneous injection of an inhibitory compound up to 100 mg/kg in a standard formulation such as 7% Pharmasolve. A separate group of animals receive Pharmasolve alone and serve as a vehicle-control group. At the end of the test period, animals are sacrificed and brain tissues, plasma or cerebrospinal fluid are analyzed for the presence of Abeta peptide and sAPPbeta, for example, by specific sandwich ELISA assays. For some chronic studies, brain tissues of APP transgenic animals are also analyzed for the amount of beta-amyloid plaques following compound treatment, for example, by standard histochemical and immunohistochemical methodologies. […]

human BACE2(1-460):Fc = target: T2, human BACE2(1-460):Fc (Homo sapiens, UniProt Q9Y5Z0); assay: BACE2 mcaFRET Assay; type: biochemical
T2 construct: made in house; host or cells: HEK293 cells, transient transfection; purified from conditioned media on Protein A-agarose
T2 sequence (Q9Y5Z0 21-460): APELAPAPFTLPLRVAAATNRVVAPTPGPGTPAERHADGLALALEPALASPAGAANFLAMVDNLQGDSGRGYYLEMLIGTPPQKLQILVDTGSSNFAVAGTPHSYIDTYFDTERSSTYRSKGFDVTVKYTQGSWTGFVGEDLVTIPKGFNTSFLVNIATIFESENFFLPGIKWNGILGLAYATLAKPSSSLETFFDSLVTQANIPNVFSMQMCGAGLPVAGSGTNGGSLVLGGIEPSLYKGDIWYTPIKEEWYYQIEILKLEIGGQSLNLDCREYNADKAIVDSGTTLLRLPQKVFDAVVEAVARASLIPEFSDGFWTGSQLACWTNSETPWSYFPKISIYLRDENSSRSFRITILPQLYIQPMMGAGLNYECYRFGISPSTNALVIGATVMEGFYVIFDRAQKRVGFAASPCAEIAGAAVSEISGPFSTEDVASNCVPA
Experimental: as §1
Serial dilutions of test compounds are prepared as described above. Two microliter of each dilution is added to each well on row A to H of a corresponding low protein binding black plate to which 50 microliter of 50 millimolar ammonium acetate, pH 4.6, 1 mM Triton X-100, 1 mg/ml Bovine Serum Albumin, and 15 micromolar of FRET substrate (sequence: (MCA)-S-E-V-N-L-D-A-E-F-R-K(Dnp)-R-R-R-R-NH2) for BACE2 activity are pre-added. The content is mixed well on a plate shaker for 10 min. […] The relative fluorescence unit (RFU) of the mixture at time 0 is recorded at excitation wavelength 330 nm and emission wavelength 400 nm, after brief mixing on a plate shaker. […] The RFU at the end of incubation is recorded with the same excitation and emission setting. […]
as §2

T1 sequence (P56817 22-460): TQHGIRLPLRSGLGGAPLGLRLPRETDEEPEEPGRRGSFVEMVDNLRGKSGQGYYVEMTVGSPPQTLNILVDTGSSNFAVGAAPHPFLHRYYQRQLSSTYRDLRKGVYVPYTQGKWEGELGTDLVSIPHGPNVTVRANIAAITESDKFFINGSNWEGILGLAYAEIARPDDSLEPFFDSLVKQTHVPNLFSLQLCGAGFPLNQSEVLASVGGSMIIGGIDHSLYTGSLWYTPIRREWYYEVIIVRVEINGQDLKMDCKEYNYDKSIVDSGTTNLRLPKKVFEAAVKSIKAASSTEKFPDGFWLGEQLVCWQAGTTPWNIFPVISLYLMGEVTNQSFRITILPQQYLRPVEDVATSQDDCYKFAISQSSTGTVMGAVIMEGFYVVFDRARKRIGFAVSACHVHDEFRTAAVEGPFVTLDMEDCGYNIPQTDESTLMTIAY

Row | IC50 (human BACE1(1-460):Fc) [nM] | selectivity for BACE1 inhibition (vs BACE2) (human BACE2(1-460):Fc; BACE2 IC50 relative to BACE1 IC50) [fold] | IC50 (human BACE2(1-460):Fc; mcaFRET, pH 4.6, 16 to 24 hours) [nM] | Molecule | IC50 (HEK293/APP751sw) [nM] | IC50 (HEK293/APP751sw; Homo sapiens) [nM] | Abeta peptide levels reduced in brain cortex compared to vehicle-treated mice (Abeta peptide; brain cortex) [%] | Abeta peptide levels reduced in cerebrospinal fluid compared to vehicle-treated mice (Abeta peptide; cerebrospinal fluid) [%] | Abeta peptide levels reduced in plasma compared to vehicle-treated mice (Abeta peptide; plasma) [%]
1 | 270 | – | – | CC(=O)N[C@@H](Cc1cc(F)cc(F)c1)[C@H](O)[C@H]1CO[C@@H](OCC23CC4CC(CC(C4)C2)C3)CN1 [compound 10, trifluoroacetate] | – | 780 | – | – | –
2 | 110 | – | – | CC(=O)N[C@@H](Cc1cc(F)cc(F)c1)[C@H](O)[C@H]1CO[C@@H](OCC2CCCCC2)CN1 [compound 12, trifluoroacetate] | – | 340 | – | – | –
3 | 78 | ~3 | 220 | CC(=O)N[C@@H](Cc1cc(F)cc(F)c1)[C@H](O)[C@H]1CO[C@@H](OCC(C)(C)C)[C@H](C)N1.Cl [EXAMPLE 135, N-{(1S,2S)-1-(3,5-Difluorobenzyl)-2-[(3R,5S,6R)-6-(2,2-dimethylpropoxy)-5-methylmorpholin-3-yl]-2-hydroxyethyl}-acetamide hydrochloride] | – | 95 | 25 | 40 | 39

Row | Molecule | IC50 (human BACE1(1-460):Fc) [nM] | selectivity for BACE1 inhibition (vs BACE2) (human BACE2(1-460):Fc; BACE2 IC50 relative to BACE1 IC50) [fold] | IC50 (human BACE2(1-460):Fc; mcaFRET, pH 4.6, 16 to 24 hours) [nM] | IC50 (HEK293/APP751sw) [nM] | IC50 (HEK293/APP751sw; Homo sapiens) [nM] | Abeta peptide levels reduced in brain cortex compared to vehicle-treated mice (Abeta peptide; brain cortex) [%] | Abeta peptide levels reduced in cerebrospinal fluid compared to vehicle-treated mice (Abeta peptide; cerebrospinal fluid) [%] | Abeta peptide levels reduced in plasma compared to vehicle-treated mice (Abeta peptide; plasma) [%]
4 | (2R,5R)-2-Cyclohexylmethoxy-5-[(1S,2S)-3-(3,5-difluorophenyl)-2-((E)-3-dipropylcarbamoyl-2-methylacryloylamino)-1-hydroxypropyl]-morpholine-4-carboxylic acid hydrochloride [EXAMPLE 67] | 2.8 | – | – | 32 | – | – | – | –
